In patent US20250352524A1, “PREVENTION OF METASTATIC OUTGROWTH USING TEAD INHIBITORS” (Georgetown University, priority 2024, published 2025):

Assays:
[1] = test system: lung resident macrophages; experiment: Cytokine array of conditioned media, isolated lung macrophages; assay type: cell-based, C57BL/6 mice
Source text: (§1) Due to the shifts in immune signaling observed in the lung tissue upon TEAD inhibition (FIG. 9), immune cell populations were first analyzed by flow cytometry in the lungs and spleens of tumor naïve mice. Consistent with the Cibersort analysis of RNA-seq data, there was a decrease in the monocytes population and an increase in the tissue-resident alveolar macrophages (AM) (FIG. 10, Panel A). […] Next, it was sought to determine the specific effects of iTEAD treatment on lung resident versus bone-marrow derived macrophages, as the dynamics of these cell populations are crucial for the establishment of the metastatic niche (Ries et al., 2014; Qian et al., 2011). Macrophages were retrieved from the lungs by isolating F4/80+ cells, a specific marker for murine macrophages, by FACS (fluorescence-activated cell sorting) as well as bone marrow-derived macrophages from the femurs of naïve C57BL/6 mice that were then differentiated in vitro using macrophage colony stimulating factor (M-CSF). Macrophages were treated with 1 μM of VT107 for 24 hours before the conditioned media was collected and analyzed on a cytokine array. […] There was no change in the level of the other cytokines detected (FIG. 10, Panel B).
Cells were grown in their recommended cell culture media and treated with […] VT107 for 24 or 72 hours. Conditioned media was collected and passed through a 0.2 micron PES filter then analyzed on a RayBio® Mouse Cytokine Array (#AAM-TCR-1) according to the manufacture's protocol. The array includes two spots for each cytokine. The luminescence signal was normalized to the positive control on each membrane, then to the vehicle treatment signal of each cytokine.

[2] = test system: bone marrow-derived macrophages; experiment: Cytokine array of conditioned media, bone marrow-derived macrophages; assay type: cell-based, mouse; conditions: 1 μM VT107 for 24 hours
Source text: as §1, with “B). […]” for “B).”

peritoneal macrophages = experiment: Gene expression and pathway analysis of peritoneal macrophages treated in vitro; assay type: cell-based, mouse
Source text: To investigate whether the effect of iTEAD treatment on macrophages can enhance their crosstalk with T-cells in the lung microenvironment, peritoneal macrophages+/−iTEAD were first isolated and characterized as a model of resident macrophages for ex vivo experiments (FIG. 14, Panel A). It was observed that treatment with VT107 decreased gene expression of M2-like and fibrosis regulators, Aldh1a1 and Cc117 (Chen et al., 2020), as well as TEAD4 and its downstream target gene Ankrd1. […] The iTEAD pretreated peritoneal macrophages and untreated T-cells isolated from the spleen of tumor naïve mice (FIG. 14, Panel A) were then mixed for 5 hours before collecting the conditioned media for analysis. […] Next, these immune cell mixes were added to 4T1 spheres that were embedded into matrix. […] This effect was reversed by an IL12 neutralizing antibody. No change in cleaved caspase-3 in 4T1 cells in the presence of VT107-treated T-cells or macrophages alone, was detected at 24 hours (FIG. 14, Panels C and D). 4T1 cells were then plated and allowed to attach on electrode-coated arrays to monitor cancer cell viability before the addition of macrophages+/−iTEAD and T-cells. […] This reversal of T-cell cytotoxicity by IL12 antibodies was not observed in VT107-treated T-cells in the absence of macrophages (FIG. 15, Panel E) indicating a critical role for IL12 in the crosstalk between macrophages and T-cells.
The total RNA from tissue or cell lines was extracted using RNeasy Mini Kit (Qiagen, #74104) according to the manufacturer's instructions. Total RNA integrity was assessed with the Agilent 2100 Bioanalyzer. The library preparation and next-generation sequencing (NGS) were performed at Novogene Corporation Inc. (Sacramento, CA, USA). At least triplicate samples per experimental condition were analyzed, raw sequence reads (150 bp paired end, […] average reads/sample) were aligned to the human or mouse transcriptome using STAR, and aligned reads translated to expression counts via featurecounts, followed by a standard edgeR (RRID:SCR_012802) pipeline to identify DEGs under specific conditions. Ingenuity pathway analysis (IPA, RRID:SCR_008653) was undertaken using a list of all differentially expressed genes with a cutoff of p-value less than 0.05 to identify signaling pathways and upstream regulators.

[3] = 1 μM VT107 for 24 hours, pathway analysis

With VT107 the “level of the other cytokines detected” value ([1]; 1 μM VT107 24 hours, lung and bone marrow-derived macrophages) was “no change”, the “secreted IL4” value ([1]; 1 μM VT107 for 24 hours) was “significantly higher level” and the “secreted IL12” value ([1]; 1 μM VT107 for 24 hours) was “significantly higher level”. The “secreted IL4 levels” value [2] was “reduced”, the “secreted IL12” value [2] was “no effect” and the “cell cycle related pathways” value (peritoneal macrophages; [3]) was “upregulated”. The “disease-related chronic inflammation pathways” value (peritoneal macrophages; [3]) was “downregulation”, the Pvalb gene expression (peritoneal macrophages; 1 μM VT107 for 72 hours) was “top upregulated gene” and the “gene expression of Aldh1a1, Cc117, TEAD4 and Ankrd1” value (peritoneal macrophages; 1 μM VT107 for 72 hours) was “decreased”.
